From publication PMC11123841, “Discovery and Synthesis of Hydroxy-L-Proline Blockers of the Neutral Amino Acid Transporters SLC1A4 (ASCT1) and SLC1A5 (ASCT2)” (Molecules, 2024)
Entries after “also recorded” stand apart in the source; their conditions may differ.

Columns and labels:
[1] = target: T1, SLC1A4 (Homo sapiens, UniProt P43007); experiment: [3H]L-alanine heteroexchange (trans-stimulation) in preloaded oocytes; type: cell-based; conditions: 3 µM BPOHP, 1 mM L-alanine
T1 construct: expressed in transfected cells; host or cells: Xenopus laevis oocytes (cRNA injection)
T1 sequence (P43007 1-532): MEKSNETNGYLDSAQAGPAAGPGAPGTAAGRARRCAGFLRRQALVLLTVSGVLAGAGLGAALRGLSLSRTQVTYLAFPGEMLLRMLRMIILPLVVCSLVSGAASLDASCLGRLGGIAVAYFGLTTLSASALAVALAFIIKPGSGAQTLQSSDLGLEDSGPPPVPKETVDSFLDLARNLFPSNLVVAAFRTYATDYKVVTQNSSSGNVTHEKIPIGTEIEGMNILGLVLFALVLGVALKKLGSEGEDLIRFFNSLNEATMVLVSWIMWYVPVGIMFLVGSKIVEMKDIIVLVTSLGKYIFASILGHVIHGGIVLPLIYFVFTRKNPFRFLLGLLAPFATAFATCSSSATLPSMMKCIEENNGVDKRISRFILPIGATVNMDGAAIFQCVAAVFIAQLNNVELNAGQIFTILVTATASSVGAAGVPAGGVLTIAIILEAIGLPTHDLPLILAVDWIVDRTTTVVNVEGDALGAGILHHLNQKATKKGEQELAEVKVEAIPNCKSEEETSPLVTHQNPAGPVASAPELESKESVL
Method: (§1) Uptake was halted by washing 3 times with 4 °C ND96 buffer. Oocytes were then lysed in 0.1% Triton X-100, and radioactivity was counted via liquid scintillation. Dose response curves were generated by fitting fractional inhibition (I) to the expression I = Imax × [inhibitor]/([inhibitor] + IC50).

[2] = target: T2, SLC7A10+SLC3A2 (asc-1/4f2) (Homo sapiens, UniProt Q9NS82); experiment: [3H]D-serine uptake in oocytes; type: cell-based; conditions: 10 µM BPOHP
T2 construct: expressed in transfected cells; host or cells: Xenopus laevis oocytes (cRNA co-injection)
T2 sequence (Q9NS82 1-523): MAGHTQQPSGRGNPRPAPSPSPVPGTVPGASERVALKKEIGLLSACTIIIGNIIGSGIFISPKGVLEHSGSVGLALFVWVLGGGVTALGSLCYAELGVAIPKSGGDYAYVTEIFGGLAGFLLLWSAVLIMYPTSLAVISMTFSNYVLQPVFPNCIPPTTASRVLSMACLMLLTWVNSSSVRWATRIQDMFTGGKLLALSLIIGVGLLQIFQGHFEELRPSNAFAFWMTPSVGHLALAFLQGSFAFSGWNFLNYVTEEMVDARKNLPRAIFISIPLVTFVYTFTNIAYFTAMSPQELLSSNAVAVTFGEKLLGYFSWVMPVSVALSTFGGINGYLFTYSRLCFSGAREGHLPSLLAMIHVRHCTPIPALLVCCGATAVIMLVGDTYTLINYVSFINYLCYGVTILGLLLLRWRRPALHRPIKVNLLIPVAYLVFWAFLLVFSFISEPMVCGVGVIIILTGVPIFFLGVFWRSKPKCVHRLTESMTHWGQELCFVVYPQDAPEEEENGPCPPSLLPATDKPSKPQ
T2 sequence (P08195 1-529 partner): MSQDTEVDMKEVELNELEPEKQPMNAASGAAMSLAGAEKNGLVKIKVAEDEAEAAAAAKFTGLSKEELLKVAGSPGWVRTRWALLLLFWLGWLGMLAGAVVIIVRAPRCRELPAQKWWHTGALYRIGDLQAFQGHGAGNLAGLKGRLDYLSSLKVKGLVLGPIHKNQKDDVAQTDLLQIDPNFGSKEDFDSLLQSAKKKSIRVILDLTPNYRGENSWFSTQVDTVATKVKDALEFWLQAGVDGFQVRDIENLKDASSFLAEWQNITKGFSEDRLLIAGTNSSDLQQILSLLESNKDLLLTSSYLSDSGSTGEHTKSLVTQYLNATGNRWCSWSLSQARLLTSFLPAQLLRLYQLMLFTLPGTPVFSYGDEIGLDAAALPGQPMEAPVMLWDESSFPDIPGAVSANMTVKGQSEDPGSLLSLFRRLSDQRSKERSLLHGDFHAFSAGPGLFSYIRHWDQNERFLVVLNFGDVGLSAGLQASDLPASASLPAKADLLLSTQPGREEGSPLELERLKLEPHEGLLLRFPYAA
Method: BPOHP activity was evaluated against the glutamate transporters paralogs within the SLC1A gene family (SLC1A 1–3) as well as at neutral amino acid transporters that share common ligand substrates with the SLC1 family including SLC38A1,2, and 4 (ATA1, ATA2, ATA3) and heteromeric transporters SLC7A10+SLC3A2 (asc-1/4f2). […] Finally, radiolabeled [^3H]D-serine uptake was used to assess the electroneutral SLC7A10+SLC3A2 transporter, in which 10 µM BPOHP had no effect (Figure S3).
as §1
Figure SM-3A. Representative traces showing 100µM L-Ala currents and co-application of 3µM BPOHP (black bar) with no effect on SLC38A neutral amino acid transporters SLC38A1(ATA1), SLC38A2 (ATA2), and SLC38A4 (ATA3). SM-3B. [3H]D-serine uptake (100nM) in SLC1A4 is blocked by BPOHP (10µM), however, [ 3H]D-serine uptake by co -expressed SLC7A10+SLC3A2 (asc1+4F2) nor SLC3A2 (4f2) expressed (injected) alone was blocked by application of 10µM BPOHP.
Figure SM-4. Tosic acid approach to compound 12c. (i) Tosylic acid 0.1M in THF 60◦C. (ii) Phenol and NaH in DCM, 40◦C under argon balloon (iii) 10% Pd/C (10% w/eq.), H2, MeOH, H2O, […]

## O=C(O)[C@H]1NC[C@@H](OCc2ccc(-c3ccccc3)cc2)[C@@H]1O [14e]
[1]
  [3H]L-alanine exchange: No exchange was detected
[2]
  effect on [3H]D-serine uptake: no effect; also recorded: no inhibition was detected
